Key:
Experiment in all cases: relative viability (nuclei count vs DMSO), 5 days (fraction); higher = more cells survive
R406 + Bortezomib = compound: COc1cc(Nc2ncc(F)c(Nc3ccc4c(n3)NC(=O)C(C)(C)O4)n2)cc(OC)c1OC [R406] + CC(C)C[C@H](NC(=O)[C@H](Cc1ccccc1)NC(=O)c1cnccn1)B(O)O [Bortezomib] (partner 0.002 µM)
Method in brief: (§1)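 Relative viability divides the nuclei count in treated wells by that in vehicle wells. Lung cancer cell lines were seeded in 1536-well plates, dosed by pin tool the next day, and fixed and stained after 5 days in one step with final 0.05% Triton X-100, 1% formaldehyde and 1 ug/ml Hoechst. Dosing was a single drug or a fixed anchor-drug dose plus five library-drug doses (not always all listed) in √10 steps, and values are medians of duplicate plates imaged at 4×.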

R406 + Lapatinib = compound: COc1cc(Nc2ncc(F)c(Nc3ccc4c(n3)NC(=O)C(C)(C)O4)n2)cc(OC)c1OC [R406] + CS(=O)(=O)CCNCc1ccc(-c2ccc3ncnc(Nc4ccc(OCc5cccc(F)c5)c(Cl)c4)c3c2)o1 [Lapatinib] (partner 2 µM)
Method in brief: as §1

R406 + Tozasertib = compound: COc1cc(Nc2ncc(F)c(Nc3ccc4c(n3)NC(=O)C(C)(C)O4)n2)cc(OC)c1OC [R406] + Cc1cc(Nc2cc(N3CCN(C)CC3)nc(Sc3ccc(NC(=O)C4CC4)cc3)n2)n[nH]1 [Tozasertib] (partner 0.1 µM)
Method in brief: as §1

R406 + Olaparib = compound: COc1cc(Nc2ncc(F)c(Nc3ccc4c(n3)NC(=O)C(C)(C)O4)n2)cc(OC)c1OC [R406] + O=C(c1cc(Cc2n[nH]c(=O)c3ccccc23)ccc1F)N1CCN(C(=O)C2CC2)CC1 [Olaparib] (partner 8 µM)
Method in brief: as §1

Cell Line | relative viability (R406 + Bortezomib; first compound 0.08 µM) | relative viability (R406 + Bortezomib; first compound 0.253 µM) | relative viability (R406 + Bortezomib; first compound 0.8 µM) | relative viability (R406 + Bortezomib; first compound 8 µM) | relative viability (R406 + Lapatinib; first compound 0.08 µM) | relative viability (R406 + Lapatinib; first compound 0.253 µM) | relative viability (R406 + Lapatinib; first compound 0.8 µM) | relative viability (R406 + Lapatinib; first compound 8 µM) | relative viability (R406 + Tozasertib; first compound 0.08 µM) | relative viability (R406 + Tozasertib; first compound 0.253 µM) | relative viability (R406 + Tozasertib; first compound 0.8 µM) | relative viability (R406 + Tozasertib; first compound 2.53 µM) | relative viability (R406 + Tozasertib; first compound 8 µM) | relative viability (R406 + Olaparib; first compound 0.08 µM) | relative viability (R406 + Olaparib; first compound 0.253 µM) | relative viability (R406 + Olaparib; first compound 0.8 µM) | relative viability (R406 + Olaparib; first compound 2.53 µM) | relative viability (R406 + Olaparib; first compound 8 µM) | relative viability (R406 + Bortezomib; first compound 2.53 µM) | relative viability (R406 + Lapatinib; first compound 2.53 µM)
HCC-15 | 1.02 | 1.16 | 1.25 | 0.962 | 0.822 | 1.02 | 0.94 | 0.687 | 0.437 | 0.484 | 0.458 | 0.483 | 0.208 | 0.653 | 0.839 | 0.675 | 0.725 | 0.505 | – | –
A-427 | 0.948 | 1.01 | 1.03 | 0.74 | 0.922 | 1.14 | 1.17 | 0.801 | 0.254 | 0.223 | 0.188 | 0.185 | 0.169 | 0.717 | 0.762 | 0.853 | 0.682 | 0.435 | 0.526 | 0.958
NCI-H2228 | 1.05 | 1.15 | 1.32 | 0.304 | 1.13 | 1.27 | 1.5 | 0.131 | 0.27 | 0.31 | 0.253 | 0.278 | 0.066 | 0.487 | 0.731 | 0.848 | 0.341 | 0.238 | 0.118 | 0.13
NCI-H1734 | 0.828 | 1.16 | 1.05 | 0.269 | 1.03 | 1.1 | 1.1 | 0.621 | 0.294 | 0.272 | 0.262 | 0.26 | 0.206 | 0.641 | 0.654 | 0.688 | 0.542 | 0.417 | 0.344 | 0.426
PC-3 [JPC-3] | 0.916 | 0.866 | 0.927 | 0.755 | 0.457 | 0.501 | 0.503 | 0.418 | 0.942 | 0.964 | 1.01 | 0.88 | 0.516 | 1.15 | 1.3 | 1.13 | 0.838 | 0.452 | 0.758 | 0.406
NCI-H1915 | 0.963 | 1.01 | 0.985 | 0.898 | 0.991 | 1.09 | 1.03 | 0.778 | 0.459 | 0.474 | 0.521 | – | 0.463 | 0.286 | 0.267 | 0.263 | 0.237 | 0.237 | 0.79 | 0.806
NCI-H1666 | 0.803 | 1.03 | 0.853 | 0.617 | 0.784 | 0.79 | 0.708 | 0.336 | 0.584 | 0.725 | 0.582 | 0.633 | 0.418 | 0.74 | 0.797 | 0.725 | 0.824 | 0.687 | 0.336 | 0.452
HCC-366 | 1.08 | 1.02 | 1.3 | 0.428 | 0.908 | 1.15 | 1.17 | 0.356 | 0.101 | 0.0718 | 0.133 | 0.0575 | 0.0313 | 0.33 | 0.391 | 0.349 | 0.316 | 0.0913 | – | –
NCI-H727 | 0.803 | 0.965 | 1.1 | 0.747 | 0.918 | 0.85 | 0.905 | 0.712 | 0.586 | 0.566 | 0.694 | 0.594 | 0.433 | 0.533 | 0.67 | 0.666 | 0.75 | 0.663 | 0.278 | 0.195
RERF-LC-KJ | 1.15 | 1.23 | 1.26 | 1.01 | 0.682 | 0.876 | 1.01 | 0.794 | 0.463 | 0.653 | 0.447 | 0.481 | 0.402 | 1.05 | 0.947 | 0.908 | 0.756 | 0.585 | 0.932 | 0.761
LC-2-ad | 0.973 | 1.09 | 0.987 | 0.133 | 0.986 | 0.847 | 1.03 | 0.0913 | 0.509 | 0.482 | 0.368 | 0.422 | 0.351 | 0.728 | 0.809 | 0.694 | 0.699 | 0.45 | 0.111 | 0.112
CAL-12T | 0.927 | 1.18 | 1.11 | 0.218 | 0.697 | 0.698 | 0.775 | 0.288 | 0.312 | 0.366 | 0.324 | 0.255 | 0.194 | 0.71 | 0.746 | 0.747 | 0.687 | 0.55 | 0.423 | 0.638
SK-LU-1 | 1.16 | 1.32 | 1.09 | 0.544 | 0.875 | 0.93 | 1.09 | 0.303 | 0.301 | 0.318 | 0.363 | 0.256 | 0.106 | 0.441 | 0.44 | 0.464 | 0.249 | 0.213 | 0.384 | 0.491
NCI-H1650 | 0.244 | 0.214 | 0.18 | 0.197 | 0.724 | 0.926 | 0.802 | 0.119 | 0.394 | 0.449 | 0.461 | 0.164 | 0.185 | 0.911 | 0.808 | 0.798 | 0.787 | 0.647 | 0.208 | 0.154
BEN | 0.685 | 1.03 | 1.02 | 0.553 | 0.627 | 0.75 | 0.735 | 0.602 | 0.522 | 0.478 | 0.499 | 0.569 | 0.543 | 1.09 | 1.24 | 1.28 | 1.04 | 0.871 | 0.88 | 0.791
EMC-BAC-2 | 1.04 | 1.13 | 1.12 | 0.844 | 0.888 | 0.963 | 0.93 | 0.806 | 0.311 | 0.286 | 0.305 | 0.279 | 0.246 | 0.46 | 0.547 | 0.468 | 0.393 | 0.307 | 1.04 | 0.921

Source: the supplement of paper PMC10307832
